Molecular target: T1, Casp6 in serum-deprived primary human neurons (Homo sapiens, UniProt P55212)
T1 construct: endogenous in cells; host or cells: primary human CNS neurons from cortical tissue, serum-deprived
Assay: Casp6 activity in serum-deprived primary human neurons (VEIDase, FLICA, TubΔCasp6)
Assay type: cell-based
Conditions: 100 μM
Description: HCT116: Human colon carcinoma (HCT116) cells (ATCC, Manassas, VA, USA) were cultured in McCoy’s 5A modified media (Thermo Fisher Scientific, Waltham, MA, USA) supplemented with 10% fetal bovine serum (Thermo Fisher Scientific, Waltham, MA, USA) and transfected with 1 μg of pCep4βCasp6p20p10 mixed with 8 μg of polyethyleneimine (Polysciences Inc., Warrington, PA, USA). Protein expression was allowed for 24 h before treating with vehicle (PBS), 100 μM NWL-117, or 100 μM NWL-154 for 2 h. For NWL inhibitor kinetic experiments, 100 μM of NWL-117 or NWL-154 was added at 120, 90, 60, 30, 15, or 0 min before harvest. […]
Recombinant or extracted cellular Casp6 activity: Casp6 activity was assessed by in vitro fluorogenic assays using Ac-Val-Glu-Ile-Asp-(7-Amino-4-trifluoromethylcouramin) (Ac-VEID-AFC: Enzo LifeSciences, NY, USA) as the Casp6 substrate. The activity was measured in Stennicke’s buffer (SB) (20 mM piperazine-N, N-bis (2-ethanesulfonic acid) (PIPES: BioShop Canada Inc, Burlington, Ontario, CA) pH 7.2, 30 mM NaCl, 1 mM ethylenediaminetetraacetic acid (EDTA), 0.1% 3-[(3-cholamidopropyl)-dimethylammonio]-2-hydroxy-1-propanesulfonic acid (CHAPS), 10% sucrose). […] Fluorescence units were converted to the moles of AFC released based on a standard curve of 0–625 picomoles of free AFC. Cleavage rates were calculated from the linear phase of the assay. […]

T1 sequence (P55212 24-293): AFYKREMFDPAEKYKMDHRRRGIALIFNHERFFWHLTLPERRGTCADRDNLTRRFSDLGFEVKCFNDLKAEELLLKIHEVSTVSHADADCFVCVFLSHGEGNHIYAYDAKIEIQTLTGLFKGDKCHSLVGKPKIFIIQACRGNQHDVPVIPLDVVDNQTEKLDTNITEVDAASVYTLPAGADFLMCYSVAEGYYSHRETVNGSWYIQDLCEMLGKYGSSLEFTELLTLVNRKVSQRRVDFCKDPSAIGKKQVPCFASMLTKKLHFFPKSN

SMILES | Casp6 fluorogenic and FLICA-measured activity and TubΔCasp6
CCC(C)[C@H](NC(=O)[C@H](CCC(=O)O)NC(=O)[C@@H](NC(=O)OCc1ccccc1)C(C)C)C(=O)N[C@H](/C=C/S(C)(=O)=O)CC(=O)O (some centres unmarked) [NWL-117] | decreased
CCC(C)[C@H](NC(=O)[C@H](CCC(=O)O)NC(=O)[C@@H](NC(=O)OCc1ccccc1)C(C)C)C(=O)N[C@H](/C=C(\Cl)S(C)(=O)=O)CC(=O)O (some centres unmarked) [NWL-154] | decreased
